Test results: the NIST ThermoML archive (doi:10.1021/je7001144)
Numbers after ± are expanded uncertainties.

Conditions: Liquid, Ebulliometric method (Recirculating still)

Structure (SMILES)	vapor or sublimation pressure (267.67 K) [kPa]	vapor or sublimation pressure (272.54 K) [kPa]	vapor or sublimation pressure (277.45 K) [kPa]	vapor or sublimation pressure (282.62 K) [kPa]
FC(F)=C(F)Cl [1-chloro-1,2,2-trifluroethene]	248 ± 1	294.4 ± 1.2	347.8 ± 1.4	408.1 ± 1.6
C=COC(F)(F)F [perfluoromethyl vinyl ether]	222.4 ± 0.9	264.7 ± 1.1	313.2 ± 1.3	367.3 ± 1.5
